# Results reported in US8703716B2, “Maternal sialic acid supplementation” (DSM IP Assets B.V., priority 2010, dated 2014).
# Assays:
# [1] = mice, dams and pups lacking the gene to produce Neu5Gc; cited from earlier work
# hippocampal cultures = assay: Ex vivo neurite extension (Map2a staining) in hippocampal cultures from offspring of NANA-supplemented dams; parameters: species or system Long-Evans rats; conditions: 6 days culture
# Text: (§1) To determine the effects of supplementing maternal diets with sialic acid (n-acetylneuraminic acid; NANA) on the brain development of the offspring, forty (40) pregnant Long-Evans rats were placed on four (4) diets (10 dams per diet) that differed in their administration of sialic acid (Nacalai, San Diego, Calif.). All animals were started on the diets on the 4th day after being mated (gestational day 4).
# […] These animals were then placed on a base diet after the offspring were born. Conversely, dams on the lactational diet (“fact”) were placed on the base diet during gestation but received NANA (200 mg/kg/d) through the diet during lactation. […]
# To determine the effects of maternal NANA supplementation on the brain development of offspring, neurite extension was measured in hippocampal cultures made from p0 pups described in FIG. 2. […] The number of cells in each culture was assessed by staining with 4′,6-diamidino-2-phenylindole (DAPI).
# The percent area of Map2a staining was determined by computerized counting of all Map2a positive pixels in each image (5 random fields for each of 9-10 cultures per group; 1 culture per animal). […] A two-tailed, unpaired students t-test was used to compare the two groups, and the test detected a significant difference between the supplemented group and the control group (**, p<0.01). […]
# [2] = NANA and Neu5Gc concentrations in cerebrospinal fluid after a single oral NANA dose; assay type: in vivo, rat; conditions: single oral dose NANA 200 mg/kg
# Protocol: To assess whether NANA is bioavailable to the brain in its native form or whether NANA is processed on its way across the blood-brain barrier, the levels of NANA and one of its potential metabolites were measured in rat cerebrospinal fluid (CSF). The animals' diets were first cleared of NANA by placing them on NANA-free diets for one week. The animals were then given a single, oral dose of NANA (200 mg/kg), and the CSF of each animal was sampled at 0, 0.25, 1, 2, 4, and 6 hours after dosing. The concentrations of NANA and Neu5Gc in the CSF were then assessed by high-pressure liquid chromatography coupled with fluorescence detection methods and quantitation standards.
# [3] = test system: MBP expression in the cerebellum; assay: MBP expression by western blot of offspring cerebellum after maternal NANA supplementation during lactation; assay type: in vivo, rat
# Protocol: (§2) FIGS. 3A and 3B show the maternal NANA supplementation protocol for experiments testing additional doses of NANA administered during gestation (FIG. 3A) and lactation (FIG. 3B).
# To further assess the effects of maternal NANA supplementation during lactation on the brain development of offspring, MBP expression was measured by western blot analysis of cerebellum that was harvested from pups at postnatal days 0, 8, and 16 described in FIG. 3B. As described in Example 2, the blots were probed with an antibody for MBP as described in Example 2 that recognizes the 18 kilodalton form (18 kD MBP) and 21 kilodalton form (21 kD MBP) and an antibody for β-actin as a protein loading control. Quantitation of MBP expression performed with densitometry of the bands in each lane, and each lane represented an individual animal as described in Example 2.
# The graphs in FIGS. 12A and 12B represent the average intensity of MBP expression normalized by the corresponding actin signal in relative fluorescence units (Normalized R.F.U.).
# [4] = test system: myelin basic protein (MBP) expression in the developing whole brain; assay: MBP expression by western blot of whole brain lysates of offspring after maternal NANA supplementation; assay type: in vivo, Long-Evans rats
# Text: as §1
# Dams placed on the gestational diet (“Gest”) received NANA (200 milligrams (mg) per kilogram (kg) body weight per day (d)) only during gestation. These animals were then placed on a base diet after the offspring were born. Conversely, dams on the lactational diet (“fact”) were placed on the base diet during gestation but received NANA (200 mg/kg/d) through the diet during lactation. Dams receiving NANA (200 mg/kg/d) through the diet throughout gestation and lactation were known as the “G+L” group.
# After birth, the pups born to each diet group were crossfostered within their respective group to control for any differences in maternal care. The litters were then culled to 10 pups per dam to prevent nutritional differences caused by lack of access to the dam. The study was also designed to allow for the use of 5 pups at each endpoint (N=5) while keeping the litter size equal across all groups. Pups were taken at postnatal day 1 (p1) to determine potential differences between gestational supplementation and lactational supplementation of the maternal diet. […] Pups were also taken at p8 because it served as a midway timepoint and because the primary biomarker used cannot be detected until this day in rat development.
# To determine the effects of maternal NANA supplementation on the brain development of offspring, MBP expression was measured by western blot analysis of whole brain lysates that were harvested from pups at postnatal days 0, 8, and 16 described in FIG. 2. […]
# The graphs represent the average intensity of MBP expression normalized by the corresponding actin signal in relative fluorescence units (Normalized R.F.U.).
# [5] = test system: thickness of MBP expression in white matter of p16 pup brain; assay: Thickness of MBP expression in offspring brain slices by MBP immunohistochemistry and confocal laser microscopy; assay type: in vivo, Long-Evans rats; conditions: p16 pups
# Text: To determine the effects of supplementing maternal diets with sialic acid (n-acetylneuraminic acid; NANA) on the brain development of the offspring, forty (40) pregnant Long-Evans rats were placed on four (4) diets (10 dams per diet) that differed in their administration of sialic acid (Nacalai, San Diego, Calif.). All animals were started on the diets on the 4th day after being mated (gestational day 4). […]
# as §2
# To determine the effects of maternal NANA supplementation on the brain development of offspring, assessment of the CC and LOT was performed by taking thin slices of the p16 pup brain described in FIG. 2, staining the slices with MBP immunohistochemistry, and measuring the areas of interest with confocal laser microscopy. […] The locations of the LOT and regions associated with the anterior commissure (AC) are also illustrated in FIG. 7A. […]
# To further assess the effects of maternal NANA supplementation during lactation on the brain development of offspring, assessment of the corpus callosum (CC) and lateral olfactory tract (LOT) was performed by taking thin slices of the p16 pup brain (LacDR p16) described in FIG. 3B, staining the slices with MBP immunohistochemistry, and quantitating the areas of interest with confocal laser microscopy as described in Example 2. Maternal supplementation with NANA at doses of 25 mg/kg/d, 50 mg/kg/d, 100 mg/kg/d and 200 mg/kg/d was tested.
# To further assess the effects of maternal NANA supplementation during lactation on the brain development of offspring, assessment of the motor pyramids and medial lemniscus was performed by taking thin slices of the p16 pup brain (LacDR p16) described in FIG. 3B, staining the slices with MBP immunohistochemistry, and quantitating the areas of interest with confocal laser microscopy as described in Example 2. Maternal supplementation with NANA at doses of 25 mg/kg/d, 50 mg/kg/d, 100 mg/kg/d and 200 mg/kg/d was tested.
# [6] = maternal NANA during lactation, at certain doses tested, ANOVA p<0.001
# [7] = maternal NANA 25-200 mg/kg/d during gestation
# [8] = maternal NANA 25-200 mg/kg/d during lactation, p<0.01 / p<0.001
smiles,measurement,setting,value
"O=C(CO)N[C@H]1[C@H]([C@H](O)[C@H](O)CO)OC(O)(C(=O)O)C[C@@H]1O (some centres unmarked) [Neu5Gc, N-glycolylneuraminic acid]",transfer of Neu5Gc from fed dams to pups,[1],does not transfer
"CC(=O)N[C@H]1[C@H]([C@H](O)[C@H](O)CO)OC(O)(C(=O)O)C[C@@H]1O (some centres unmarked) [NANA, N-acetylneuraminic acid]",percent area of Map2a staining per neuron (neurite extension),"hippocampal cultures; dams fed NANA 25, 50, 100, 200 mg/kg/d during gestation, p<0.01 / p<0.001",significantly greater
same,percent area of Map2a staining per neuron (neurite extension),"hippocampal cultures; p0 pups, dams fed NANA 200 mg/kg/d during gestation, p<0.01 vs control",significantly greater
same,time at which CSF NANA returned to baseline values,[2]; rat CSF,≤ 1 h
same,time of peak of native NANA in CSF after dosing,[2]; rat CSF,15 min
same,blood-brain barrier crossing of native NANA,"[2]; rat, from CSF levels",crossed the blood-brain barrier
same,total MBP (combined 18 kDa and 21 kDa) in cerebellum,"[3]; maternal NANA 25 mg/kg/d during lactation, p<0.01",significant increase
same,total MBP (combined 18 kDa and 21 kDa) in cerebellum,"[3]; maternal NANA 100 mg/kg/d during lactation, p<0.05",significant increase
same,total MBP (combined 18 kDa and 21 kDa) in cerebellum,"[3]; maternal NANA 200 mg/kg/d during lactation, p<0.01",significant increase
same,expression of 18 kDa MBP normalized to actin in cerebellum,[3]; [6],significant increase
same,expression of 21 kDa MBP normalized to actin in cerebellum,[3]; [6],significant increase
same,"expression of both MBP isoforms, lactational diet compared to NANA-deficient diet","[4]; NANA 200 mg/kg/d during lactation only, overall analysis and postnatal day 8, Tukey p<0.05",significantly increased
same,expression of 21 kDa MBP normalized to β-actin,"[4]; whole brain of pups, maternal NANA 200 mg/kg/d in diet, one-way ANOVA p=0.012",significant increase
same,expression of 18 kDa MBP normalized to β-actin,"[4]; whole brain of pups, maternal NANA 200 mg/kg/d in diet, one-way ANOVA p=0.037",significant increase
same,thickness of MBP expression in the motor pyramids,"[5]; maternal NANA 50 mg/kg/d during lactation, p=0.022",significant increase
same,maximal thickness of MBP expression in the lateral olfactory tract (LOT),"[5]; maternal NANA 200 mg/kg/d during gestation, lactation or gestation plus lactation",significant increases
same,thickness of MBP expression in the corpus callosum (CC),"[5]; maternal NANA 200 mg/kg/d during gestation, lactation or gestation plus lactation, ANOVA p<0.001",significant increases
same,thickness of MBP expression in the middle CC,[5]; [7],did not appear to change
same,thickness of MBP expression in the midline CC decussation,[5]; [7],did not appear to change
same,thickness of MBP expression in the frontal CC,"[5]; maternal NANA 25-200 mg/kg/d during gestation, p<0.001",significant increases
same,thickness of MBP expression in the LOT,"[5]; maternal NANA 25-200 mg/kg/d during gestation, p<0.05 / p<0.001",significant increases
same,thickness of MBP expression in the medial lemniscus,"[5]; maternal NANA 25-200 mg/kg/d during gestation, p<0.05 / p<0.01",significant increases
same,thickness of MBP expression in the motor pyramids,"[5]; maternal NANA 25-200 mg/kg/d during gestation, p<0.05 to p<0.001",significant increases
same,thickness of MBP expression in the medial lemniscus,[5]; maternal NANA 25-200 mg/kg/d during lactation,no significant changes
same,thickness of MBP expression in the LOT,"[5]; maternal NANA 25-200 mg/kg/d during lactation, p<0.001",significant increases
same,thickness of MBP expression in the midline CC,[5]; [8],significant increases
same,thickness of MBP expression in the rostral CC,[5]; [8],significant increases
same,thickness of MBP expression in the midline CC decussation,"[5]; maternal NANA 25-200 mg/kg/d during lactation, p<0.05 / p<0.001",significant increases
same,thickness of MBP expression in the motor pyramids,"[5]; maternal NANA during lactation, the other doses tested (25, 100, 200 mg/kg/d)",no significant changes
